Patent US20230355708A1 (priority 2020, published 2023)
*1 amine or outer side, *2 acyl side, *3 side chain or, on linkers, in order; H or OH if unused. Where a SMILES comes first, the peptide text is derived from it. Bridges are numbered along the chain shown (N, C = ends). [ ]: non-standard residue; d: D form. X1 = Cc1ccc(-c2ccc(-c3cn([C@H]4C[C@@H](C(=O)[*:2])N([*:1])C4)nn3)cc2)s1

How the values were obtained:
HIV-1 = type: in vivo; conditions: animal model
clade_AE envelope = type: binding, HIV-1
HIVBal.01 = conditions: read-out: HIVBal.01 IC50
HIVJRFL = conditions: read-out: HIVJRFL IC50
Fully-infected HIVNL4.3 = conditions: read-out: Fully-infected HIVNL4.3 IC50
SARS-CoV-1 pseudoviruses [1] = system: SARS-CoV-1 pseudoviruses
[2] = target: SARS-CoV-2 spike S2 subunit (Severe acute respiratory syndrome coronavirus 2, UniProt P0DTC2)
SARS-CoV-2 pseudoviruses [3] = system: SARS-CoV-2 pseudoviruses
SARS-CoV-1 pseudoviruses [4] = type: cell-based
SARS-CoV-2 pseudoviruses [5] = type: cell-based
SARS-CoV-2 pseudoviruses [6] = type: cell-based; remark: listed apart in the source
SARS-CoV-1 pseudoviruses [7] = type: cell-based; remark: listed apart in the source

Molecule | HIV-1 viral load normalized to Hu CD4+ T cell counts (HIV-1) | binding to clade_AE envelope (clade_AE envelope) | IC50 (HIVBal.01) [nM] | IC50 (HIVJRFL) [nM] | IC50 (Fully-infected HIVNL4.3) [nM] | virolysis of SARS-CoV-1 pseudoviruses (SARS-CoV-1 pseudoviruses [1]) | stoichiometry of binding, S2 versus S1 [2] | virolysis of SARS-CoV-2 pseudoviruses (SARS-CoV-2 pseudoviruses [3]) | inhibition of SARS-CoV-1 pseudovirus infection (SARS-CoV-1 pseudoviruses [4]) | irreversible inactivation of SARS-CoV-2 (SARS-CoV-2 pseudoviruses [5]) | inhibition of SARS-CoV-2 pseudovirus infection (SARS-CoV-2 pseudoviruses [6]) | irreversible inactivation of SARS-CoV-1 (SARS-CoV-1 pseudoviruses [7])
CC[C@H](C)[C@@H]1NC(=O)[C@H](CC(N)=O)NC(=O)[C@@H](N)CC(=O)NCCCC[C@@H](C(N)=O)NC(=O)[C@H](Cc2c[nH]c3ccccc23)NC(=O)[C@@H]2C[C@H](n3cc(-c4ccc(-c5ccc(C)s5)cc4)nn3)CN2C1=O [AAR029N2, (3S,6S,14S,17S,20S,24S,25aS)-3-((1H-indol-3-yl)methyl)-14-amino-17-(2-amino-2-oxoethyl)-20-((S)-sec-butyl)-24-(4-(4-(5-methylthiophen-2-yl)phenyl)-1H-1,2,3-triazol-1-yl)-1,4,12,15,18,21-hexaoxotetracosahydro-1H-pyrrolo[2,1-f][1,4,7,10,13,18]hexaazacyclotricosine-6-carboxamide] (H-DNI[X1]WK-NH2; lactam 1-6) | significant efficacy in an animal model | binds clade_AE envelope | ~100 | ~112 | ~180 | – | – | – | – | – | – | –
GRFT: lectin Griffithsin, SEQ ID NO:2 | – | – | – | – | – | does not causes significant virolysis | higher for the S2 subunit as compared to the S1 subunit | does not causes significant virolysis | reduced inhibition of infection | partial irreversible inactivation | reduced inhibition of infection | partial irreversible inactivation
